According to ChEMBL document CHEMBL2073803, “Role of MDR1 and MRP1 in trophoblast cells, elucidated using retroviral gene transfer” (Am J Physiol Cell Physiol, 2003):

Biological target: ATP-dependent translocase ABCB1 (Homo sapiens, UniProt P08183)
Assay: TP_TRANSPORTER: efflux in MDR1-expressing BeWo cells
Assay type: functional, cell-based

ATP-dependent translocase ABCB1, sequence (P08183 whole entry): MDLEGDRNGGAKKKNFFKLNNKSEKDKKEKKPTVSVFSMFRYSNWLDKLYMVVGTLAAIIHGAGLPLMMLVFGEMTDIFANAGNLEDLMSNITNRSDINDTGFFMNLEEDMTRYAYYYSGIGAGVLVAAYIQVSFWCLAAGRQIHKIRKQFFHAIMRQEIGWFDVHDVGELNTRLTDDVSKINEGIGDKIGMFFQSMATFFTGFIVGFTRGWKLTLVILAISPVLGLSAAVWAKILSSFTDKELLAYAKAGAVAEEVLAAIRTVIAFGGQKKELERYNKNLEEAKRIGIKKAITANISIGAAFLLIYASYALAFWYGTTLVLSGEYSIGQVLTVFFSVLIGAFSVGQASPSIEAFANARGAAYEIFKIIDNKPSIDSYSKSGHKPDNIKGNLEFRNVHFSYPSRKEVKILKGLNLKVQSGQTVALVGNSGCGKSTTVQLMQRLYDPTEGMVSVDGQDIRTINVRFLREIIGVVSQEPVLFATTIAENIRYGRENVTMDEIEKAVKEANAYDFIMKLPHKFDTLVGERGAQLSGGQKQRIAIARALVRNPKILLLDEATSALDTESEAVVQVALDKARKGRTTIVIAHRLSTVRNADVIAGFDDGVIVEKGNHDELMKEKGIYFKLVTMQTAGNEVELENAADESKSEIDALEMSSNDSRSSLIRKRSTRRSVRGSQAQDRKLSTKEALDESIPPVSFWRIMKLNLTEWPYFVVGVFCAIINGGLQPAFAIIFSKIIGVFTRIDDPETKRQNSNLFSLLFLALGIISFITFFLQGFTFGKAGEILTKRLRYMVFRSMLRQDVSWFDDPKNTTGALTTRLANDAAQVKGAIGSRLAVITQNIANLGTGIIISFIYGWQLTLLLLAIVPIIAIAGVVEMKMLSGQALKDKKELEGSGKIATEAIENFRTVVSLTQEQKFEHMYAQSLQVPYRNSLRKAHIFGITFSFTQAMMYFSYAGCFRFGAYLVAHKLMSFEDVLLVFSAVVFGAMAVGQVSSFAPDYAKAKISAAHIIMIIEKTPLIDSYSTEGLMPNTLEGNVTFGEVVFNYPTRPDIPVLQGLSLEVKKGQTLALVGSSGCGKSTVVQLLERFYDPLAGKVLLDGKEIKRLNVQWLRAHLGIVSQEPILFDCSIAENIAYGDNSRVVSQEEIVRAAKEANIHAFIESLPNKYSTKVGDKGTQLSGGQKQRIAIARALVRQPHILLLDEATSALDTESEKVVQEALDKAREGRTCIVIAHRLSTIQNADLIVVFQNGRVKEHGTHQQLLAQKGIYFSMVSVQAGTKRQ

Activity: substrate [+]
Compound: CC[C@]1(O)C[C@@H]2CN(CCc3c([nH]c4ccccc34)[C@@](C(=O)OC)(c3cc4c(cc3OC)N(C)[C@H]3[C@@](O)(C(=O)OC)[C@H](OC(C)=O)[C@]5(CC)C=CCN6CC[C@]43[C@@H]65)C2)C1 [VINBLASTINE]
